Measurements from patent publication US20260152494A1, “CDK2 INHIBITORS AND METHODS OF USING THE SAME” (Cedilla Therapeutics, Inc., priority 2022, published 2026).
pIC50: −log10 of the molar value.

Experiments:
[1] = test system: Kuramochi cells labeled with mApple-H2B; test: IncuCyte cell proliferation assay; type: cell-based; conditions: Kuramochi RB-WT cells, 72 hours, cell count normalized to DMSO
Description: Example A3: IncuCyte® Cell Proliferation Assay
IncuCyte® assay was used to measure the effect of disclosed compounds on cell proliferation. Fluorescent microscopy images of cells were taken immediately after compound treatment and 72 hours later. Image analysis software was used to obtain cell counts as a function of compound concentration. Kuramochi cells labeled with mApple-H2B were seeded on 384-well assay-ready plates. Plates were placed in an IncuCyte® (Sartorius) and scanned at 0 and 72 hours. IncuCyte® software was used to count the number of fluorescent nuclei in each well. The fold change in cell count from 0 to 72 hours in wells treated with increasing compounds concentrations (10 pts, 1/2 log dilution, 20 μM top concentration) was normalized to DMSO control wells. The normalized cell counts were fit with dose response curves and a GI50 was calculated.

CDK2/Cyclin E1 = target: T1, CDK2/Cyclin E1 (Homo sapiens, UniProt P24941); test: CDK2/Cyclin E1 Caliper LabChip EZ Reader mobility shift assay; type: biochemical; conditions: 2.5 nM CDK2/Cyclin E1, 100 μM ATP, 1.5 μM fluorescent peptide, 30 min preincubation; read-out: Caliper Assay (CDK2/CCNE1): IC50
T1 construct: purchased Eurofins 14-475
Description: Example A1: CDK2/Cyclin E1 Caliper Assay
Inhibition of CDK2/Cyclin E1 activity in the presence of compounds of the present disclosure was evaluated using a Caliper LabChip® EZ Reader mobility shift assay. In the assay, CDK2/Cyclin E1 (Eurofins, 14-475) catalyzed the phosphorylation of a fluorescently tagged peptide 5-FAM-QSPKKG-CONH2 (PerkinElmer, FL Peptide 18) which induced a difference in capillary electrophoresis mobility. The peptide substrate and product were measured, and the conversion ratio was used to determine the inhibition (as % activity and IC50 values) of CDK2/Cyclin E1. Reactions contained 50 mM HEPES pH 7.5, 10 mM MgCl2, 1 mM EDTA, 2 mM DTT, 0.01% Brij35, 0.5 mg/mL BSA, 0.1% DMSO, 2.5 nM CDK2/Cyclin E1, 100 μM ATP, and 1.5 μM fluorescent peptide substrate.
Dose titrations of inhibitors in 100% DMSO were combined with 3.25 nM CDK2/Cyclin E1 and 130 μM of ATP in reaction buffer. The mixtures were incubated for 30 minutes before the addition of fluorescent peptide substrate to initiate the kinase reaction. The final conditions were 2.5 nM CDK2/Cyclin E1, 100 μM ATP, and 1.5 μM fluorescent peptide. The reactions were stopped after 100 minutes with the addition of EDTA (400 mM final EDTA concentration). The stopped reactions were analyzed on a Caliper LabChip® EZ Reader II. The conversion ratios were normalized to yield % activity, plotted against compound concentration, and fit to a four-parameter equation to determine the IC50 for each compound.

## CC(=O)N[C@@H](C(=O)NC1CN(C(=O)c2cnn(Cc3ccccc3)c2)CC12CN(C(=O)[C@H]1CC1(C)C)C2)[C@H](C)OCC1CCCCC1 (stereo partly drawn) [Compound I-25, (2R,3S)-2-acetamido-N-(6-(1-benzyl-1H-pyrazole-4-carbonyl)-2-((S)-2,2-dimethylcyclopropane-1-carbonyl)-2,6-diazaspiro[3.4]octan-8-yl)-3-(cyclohexylmethoxy)butanamide]
[1]
  pIC50: < 4.70
CDK2/Cyclin E1
  pIC50: 6.00 to 7.00

## C[C@@H](OCC1CCCCC1)[C@H](NC(=O)C1CS(=O)(=O)CC12CN(C(=O)[C@H]1CC1(C)C)C2)C(=O)N1CCCCC1 (stereo partly drawn) [Compound I-26, N-((2S,3R)-3-(cyclohexylmethoxy)-1-oxo-1-(piperidin-1-yl)butan-2-yl)-2-((S)-2,2-dimethylcyclopropane-1-carbonyl)-6-thia-2-azaspiro[3.4]octane-8-carboxamide 6,6-dioxide]
[1]
  pIC50: < 4.70
CDK2/Cyclin E1
  pIC50: < 5.00

## CC1(C)C[C@@H]1C(=O)N1CC2(CN(C(=O)c3cncs3)CC2C#N)C1 (stereo partly drawn) [Compound I-27, 2-((S)-2,2-dimethylcyclopropane-1-carbonyl)-6-(thiazole-5-carbonyl)-2,6-diazaspiro[3.4]octane-8-carbonitrile]
[1]
  pIC50: < 4.70
CDK2/Cyclin E1
  pIC50: < 5.00

## CCOC(=O)[C@@H]1CN(C(C)=O)CC12CN(C(C)=O)C2 [Compound I-28, ethyl (S)-2,6-diacetyl-2,6-diazaspiro[3.4]octane-8-carboxylate]
[1]
  pIC50: < 4.70
CDK2/Cyclin E1
  pIC50: < 5.00

## CNC(=O)[C@@H](NC(=O)[C@@H]1CN(C(=O)c2cnn(Cc3ccccc3)c2)CC12CN(C(=O)N(C)C1CC1)C2)[C@@H](C)OCC1CCCCC1 [Compound I-30, (S)-6-(1-benzyl-1H-pyrazole-4-carbonyl)-N8-((2S,3R)-3-(cyclohexylmethoxy)-1-(methylamino)-1-oxobutan-2-yl)-N2-cyclopropyl-N2-methyl-2,6-diazaspiro[3.4]octane-2,8-dicarboxamide]
[1]
  pIC50: < 4.70
CDK2/Cyclin E1
  pIC50: 6.00 to 7.00

## C[C@@H](OCC1CCCCC1)[C@H](NC(=O)[C@@H]1CNCC12CN(C(=O)[C@H]1CC1(C)C)C2)C(=O)N1CCOCC1 [Compound I-32, (S)—N-((2S,3R)-3-(cyclohexylmethoxy)-1-morpholino-1-oxobutan-2-yl)-2-((S)-2,2-dimethylcyclopropane-1-carbonyl)-2,6-diazaspiro[3.4]octane-8-carboxamide]
[1]
  pIC50: < 4.70
CDK2/Cyclin E1
  pIC50: < 5.00

## C[C@@H](OCC1CCCCC1)[C@H](NC(=O)[C@@H]1CN(C(=O)OC(C)(C)C)CC12CN(C(=O)[C@H]1CC1(C)C)C2)C(=O)N1CCOCC1 [Compound I-33]
[1]
  pIC50: < 4.70
CDK2/Cyclin E1
  pIC50: 5.00 to 6.00

## CC(=O)N1C[C@@H](C(=O)N[C@H](C(=O)N2CCOCC2)[C@@H](C)OCC2CCCCC2)C2(C1)CN(C(=O)[C@H]1CC1(C)C)C2 [Compound I-36, (S)-6-acetyl-N-((2S,3R)-3-(cyclohexylmethoxy)-1-morpholino-1-oxobutan-2-yl)-2-((S)-2,2-dimethylcyclopropane-1-carbonyl)-2,6-diazaspiro[3.4]octane-8-carboxamide]
[1]
  pIC50: < 4.70
CDK2/Cyclin E1
  pIC50: < 5.00

## C[C@@H](OCC1CCCCC1)[C@H](NC(=O)[C@@H]1CNCC12CN(C(=O)[C@H]1CC1(C)C)C2)C(=O)N1CCCCC1 [Compound I-37, (S)—N-((2S,3R)-3-(cyclohexylmethoxy)-1-oxo-1-(piperidin-1-yl)butan-2-yl)-2-((S)-2,2-dimethylcyclopropane-1-carbonyl)-2,6-diazaspiro[3.4]octane-8-carboxamide]
[1]
  pIC50: < 4.70
CDK2/Cyclin E1
  pIC50: < 5.00

## C[C@@H](OCC1CCCCC1)[C@H](NC(=O)[C@@H]1CN(C(=O)OC(C)(C)C)CC12CN(C(=O)[C@H]1CC1(C)C)C2)C(=O)N1CCCCC1 [Compound I-38]
[1]
  pIC50: < 4.70
CDK2/Cyclin E1
  pIC50: 5.00 to 6.00

## CNC(=O)[C@@H](NC(=O)[C@@H]1CN(C(C)=O)CC12CN(C(=O)[C@H]1CC1(C)C)C2)[C@@H](C)OCC1CCCCC1 [Compound I-39]
[1]
  pIC50: < 4.70
CDK2/Cyclin E1
  pIC50: < 5.00
